Values quoted from earlier work as cited in US9481672B2 (priority 2012, dated 2016).

System: chymase
Conditions: hamsters, myocardial infarction model

CCOc1ccccc1CC1C(=O)N(C(=O)NC(c2ccc(C)cc2)c2ccc(C)cc2)C1Oc1ccc(C(=O)O)cc1 (stereo not drawn) [BCEAB]
chymase activity: reduced
haemodynamics: improved
mortality: reduced
